# pIC50: −log10 of the molar value.
# Assays:
# [1] = target: T1, hCav1.2 (L-type calcium channel, LTCC) (Homo sapiens, UniProt Q13936); assay: automated patch clamp of I Ca,L in Cav1.2-CHO cells; confirmed by conventional patch clamp with Ba2+ as charge carrier; assay type: cell-based
# T1 construct: gene CACNA1C; hCav1.2/β2/α2δ1 channel stably expressed in CHO cells; with CACNB2 (β2) and CACNA2D1 (α2δ1) subunits
# hERG (hKv11.1) = target: T2, hERG (hKv11.1) (Homo sapiens, UniProt Q12809); assay: automated patch clamp of I Kr in hERG-HEK293 cells; independently verified in hERG-CHO ([…] at […]); assay type: cell-based
# T2 construct: gene KCNH2; human KCNH2 stably expressed in HEK293 cells
# T2 sequence (Q12809 whole entry): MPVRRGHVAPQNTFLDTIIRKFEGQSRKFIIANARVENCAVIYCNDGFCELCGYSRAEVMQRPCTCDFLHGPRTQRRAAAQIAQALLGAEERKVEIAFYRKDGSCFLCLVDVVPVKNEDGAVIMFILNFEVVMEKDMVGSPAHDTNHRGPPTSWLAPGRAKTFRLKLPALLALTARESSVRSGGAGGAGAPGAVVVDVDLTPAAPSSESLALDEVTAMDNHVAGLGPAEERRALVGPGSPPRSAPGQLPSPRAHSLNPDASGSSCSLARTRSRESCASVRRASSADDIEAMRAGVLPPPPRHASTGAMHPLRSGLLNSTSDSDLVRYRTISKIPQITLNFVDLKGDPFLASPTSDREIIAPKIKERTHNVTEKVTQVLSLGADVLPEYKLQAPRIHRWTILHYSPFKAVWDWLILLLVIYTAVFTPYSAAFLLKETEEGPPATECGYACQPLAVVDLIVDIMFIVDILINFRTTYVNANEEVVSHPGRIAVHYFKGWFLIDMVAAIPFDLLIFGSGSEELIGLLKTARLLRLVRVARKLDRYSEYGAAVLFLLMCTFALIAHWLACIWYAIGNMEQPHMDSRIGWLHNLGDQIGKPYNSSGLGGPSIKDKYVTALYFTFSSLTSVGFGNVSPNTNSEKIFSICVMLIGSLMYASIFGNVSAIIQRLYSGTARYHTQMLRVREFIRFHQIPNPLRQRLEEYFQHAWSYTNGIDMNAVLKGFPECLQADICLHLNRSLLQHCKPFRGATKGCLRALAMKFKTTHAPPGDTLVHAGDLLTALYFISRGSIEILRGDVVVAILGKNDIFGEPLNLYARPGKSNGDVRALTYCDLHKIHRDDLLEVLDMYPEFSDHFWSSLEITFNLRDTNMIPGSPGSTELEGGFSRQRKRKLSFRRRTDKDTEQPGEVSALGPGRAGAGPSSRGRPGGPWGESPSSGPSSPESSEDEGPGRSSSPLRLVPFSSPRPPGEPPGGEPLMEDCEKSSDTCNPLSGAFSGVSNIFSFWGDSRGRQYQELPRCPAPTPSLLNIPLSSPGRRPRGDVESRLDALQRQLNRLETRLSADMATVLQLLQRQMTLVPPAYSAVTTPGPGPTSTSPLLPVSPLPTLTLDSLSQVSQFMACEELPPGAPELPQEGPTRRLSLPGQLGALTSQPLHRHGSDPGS
# T1 sequence (Q13936 whole entry): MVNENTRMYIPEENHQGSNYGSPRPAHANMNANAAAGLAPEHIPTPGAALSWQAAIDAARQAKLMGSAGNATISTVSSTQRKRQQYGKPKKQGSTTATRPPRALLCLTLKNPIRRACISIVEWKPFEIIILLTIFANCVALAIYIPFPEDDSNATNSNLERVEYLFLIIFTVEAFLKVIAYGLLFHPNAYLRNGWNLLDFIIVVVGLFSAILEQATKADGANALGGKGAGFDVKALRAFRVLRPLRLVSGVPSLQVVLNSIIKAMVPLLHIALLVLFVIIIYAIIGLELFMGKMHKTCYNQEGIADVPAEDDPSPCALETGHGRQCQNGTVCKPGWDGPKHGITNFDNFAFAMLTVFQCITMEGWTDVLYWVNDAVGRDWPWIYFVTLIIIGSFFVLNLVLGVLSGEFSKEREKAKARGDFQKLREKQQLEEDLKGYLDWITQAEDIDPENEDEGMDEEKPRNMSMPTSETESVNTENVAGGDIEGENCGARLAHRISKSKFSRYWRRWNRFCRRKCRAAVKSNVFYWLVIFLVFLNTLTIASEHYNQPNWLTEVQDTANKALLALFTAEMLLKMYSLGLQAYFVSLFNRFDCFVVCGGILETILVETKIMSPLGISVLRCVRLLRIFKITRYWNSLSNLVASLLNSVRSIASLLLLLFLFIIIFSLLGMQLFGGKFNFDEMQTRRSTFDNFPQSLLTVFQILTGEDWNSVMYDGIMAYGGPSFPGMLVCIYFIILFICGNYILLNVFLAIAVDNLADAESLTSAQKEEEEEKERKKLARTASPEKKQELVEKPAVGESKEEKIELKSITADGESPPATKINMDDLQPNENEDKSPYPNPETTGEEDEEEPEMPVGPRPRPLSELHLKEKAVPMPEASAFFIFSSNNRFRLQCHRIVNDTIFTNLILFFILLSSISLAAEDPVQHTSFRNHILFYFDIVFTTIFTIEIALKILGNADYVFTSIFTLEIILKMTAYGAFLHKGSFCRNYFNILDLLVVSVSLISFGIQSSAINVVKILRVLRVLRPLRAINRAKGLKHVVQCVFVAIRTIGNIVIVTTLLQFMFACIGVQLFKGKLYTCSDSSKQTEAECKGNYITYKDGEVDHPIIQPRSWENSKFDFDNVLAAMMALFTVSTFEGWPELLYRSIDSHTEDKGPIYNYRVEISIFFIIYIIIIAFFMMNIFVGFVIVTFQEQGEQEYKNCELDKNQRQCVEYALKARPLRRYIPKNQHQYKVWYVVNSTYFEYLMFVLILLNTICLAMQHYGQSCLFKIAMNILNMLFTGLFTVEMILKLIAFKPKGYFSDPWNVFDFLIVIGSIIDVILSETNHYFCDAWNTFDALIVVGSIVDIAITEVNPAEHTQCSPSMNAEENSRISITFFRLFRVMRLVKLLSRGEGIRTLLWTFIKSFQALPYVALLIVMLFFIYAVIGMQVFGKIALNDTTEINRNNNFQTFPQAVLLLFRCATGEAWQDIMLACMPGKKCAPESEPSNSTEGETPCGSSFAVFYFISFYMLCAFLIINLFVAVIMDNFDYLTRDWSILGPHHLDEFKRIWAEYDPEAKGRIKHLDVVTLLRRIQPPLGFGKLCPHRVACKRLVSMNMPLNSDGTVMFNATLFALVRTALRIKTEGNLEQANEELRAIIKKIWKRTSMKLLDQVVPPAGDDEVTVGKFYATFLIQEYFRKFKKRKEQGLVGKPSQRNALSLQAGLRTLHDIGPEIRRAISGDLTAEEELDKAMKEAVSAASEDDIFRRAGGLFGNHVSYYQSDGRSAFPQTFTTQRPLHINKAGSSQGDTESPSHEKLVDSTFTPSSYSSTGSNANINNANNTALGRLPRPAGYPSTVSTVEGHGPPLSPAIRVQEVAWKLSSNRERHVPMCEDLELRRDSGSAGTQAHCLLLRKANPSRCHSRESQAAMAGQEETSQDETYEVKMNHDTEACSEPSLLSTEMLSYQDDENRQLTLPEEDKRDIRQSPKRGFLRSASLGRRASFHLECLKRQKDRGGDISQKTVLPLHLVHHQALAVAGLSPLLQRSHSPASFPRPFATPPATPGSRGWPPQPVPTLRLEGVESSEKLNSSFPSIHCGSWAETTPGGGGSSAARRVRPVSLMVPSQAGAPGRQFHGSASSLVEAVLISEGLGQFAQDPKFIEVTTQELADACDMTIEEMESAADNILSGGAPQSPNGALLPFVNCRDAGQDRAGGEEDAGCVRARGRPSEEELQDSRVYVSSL
# T1 sequence (Q08289 whole entry partner): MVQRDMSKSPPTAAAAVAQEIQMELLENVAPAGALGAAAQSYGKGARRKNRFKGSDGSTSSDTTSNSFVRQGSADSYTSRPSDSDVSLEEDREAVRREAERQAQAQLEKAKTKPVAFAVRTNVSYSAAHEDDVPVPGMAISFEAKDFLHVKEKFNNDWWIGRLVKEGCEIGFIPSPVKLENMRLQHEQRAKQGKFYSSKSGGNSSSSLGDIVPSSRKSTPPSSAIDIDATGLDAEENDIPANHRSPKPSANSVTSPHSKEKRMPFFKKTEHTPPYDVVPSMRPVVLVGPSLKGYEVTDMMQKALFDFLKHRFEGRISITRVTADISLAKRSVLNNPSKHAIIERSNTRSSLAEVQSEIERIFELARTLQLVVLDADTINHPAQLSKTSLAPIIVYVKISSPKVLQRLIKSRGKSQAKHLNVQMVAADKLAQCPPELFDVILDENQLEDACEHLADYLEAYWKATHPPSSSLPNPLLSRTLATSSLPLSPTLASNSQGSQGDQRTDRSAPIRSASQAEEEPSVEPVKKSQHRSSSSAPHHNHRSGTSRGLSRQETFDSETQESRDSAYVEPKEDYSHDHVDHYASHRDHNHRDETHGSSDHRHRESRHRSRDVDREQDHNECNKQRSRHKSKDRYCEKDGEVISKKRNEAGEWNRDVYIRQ
# T1 sequence (P54289 25-956 partner): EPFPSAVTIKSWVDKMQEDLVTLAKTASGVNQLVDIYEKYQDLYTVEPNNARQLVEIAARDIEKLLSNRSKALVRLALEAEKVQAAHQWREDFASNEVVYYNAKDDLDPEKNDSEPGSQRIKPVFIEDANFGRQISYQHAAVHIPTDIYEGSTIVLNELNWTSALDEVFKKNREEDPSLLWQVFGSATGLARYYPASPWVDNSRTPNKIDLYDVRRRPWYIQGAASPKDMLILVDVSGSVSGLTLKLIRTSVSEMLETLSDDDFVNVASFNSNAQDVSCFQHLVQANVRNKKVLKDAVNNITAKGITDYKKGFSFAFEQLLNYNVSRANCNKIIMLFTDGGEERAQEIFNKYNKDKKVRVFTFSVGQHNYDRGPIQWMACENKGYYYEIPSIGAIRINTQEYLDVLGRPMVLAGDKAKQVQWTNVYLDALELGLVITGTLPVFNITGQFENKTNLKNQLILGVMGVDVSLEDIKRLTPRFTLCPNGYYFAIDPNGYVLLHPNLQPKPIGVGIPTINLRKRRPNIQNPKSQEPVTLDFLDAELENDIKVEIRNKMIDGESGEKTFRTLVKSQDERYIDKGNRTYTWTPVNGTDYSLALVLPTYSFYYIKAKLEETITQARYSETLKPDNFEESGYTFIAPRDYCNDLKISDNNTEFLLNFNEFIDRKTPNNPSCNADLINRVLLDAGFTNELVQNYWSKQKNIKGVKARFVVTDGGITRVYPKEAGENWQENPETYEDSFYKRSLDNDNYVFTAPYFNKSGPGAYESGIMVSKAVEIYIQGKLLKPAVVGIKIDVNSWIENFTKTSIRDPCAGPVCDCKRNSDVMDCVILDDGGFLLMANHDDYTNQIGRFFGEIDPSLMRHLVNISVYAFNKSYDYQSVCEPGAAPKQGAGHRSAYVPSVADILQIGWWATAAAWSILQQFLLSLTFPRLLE
# T1 sequence (P54289 957-1103 partner): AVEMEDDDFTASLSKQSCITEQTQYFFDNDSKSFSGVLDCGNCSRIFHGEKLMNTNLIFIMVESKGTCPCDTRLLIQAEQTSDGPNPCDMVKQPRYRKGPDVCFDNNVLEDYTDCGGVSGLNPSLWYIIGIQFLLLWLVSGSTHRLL
compound,measurement,setting,value
"C[C@]12CC[C@H](O)C[C@H]1CC[C@@H]1[C@@H]2CC[C@]2(C)[C@@H](c3ccc(=O)oc3)CC[C@]12O [BF, bufalin]",pIC50,[1],4.90
same,pIC50,hERG (hKv11.1),< 4.00

# — PMC5446409 (Scientific Reports, 2017)
